Laboratory results taken from patent publication US5677281A, “Use of peptide derivatives for the preparation of medicaments inhibiting endopeptidases 24.15 and 24.16” (Commissariat a l'Energie Atomique, priority 1992, dated 1997).
Entries after “also recorded” stand apart in the source; their conditions may differ. Read-outs that look alike come from different tables or passages of the source. Residues, ends and D or L forms follow the SMILES beside them.

What was measured:
[1] = biological target: T1, endopeptidase 24.16 (Rattus norvegicus, UniProt P42676); assay: Inhibition of endopeptidase 24.16, fluorimetry with substrate Mcc-Pro-Leu-Gly-Pro-DLys-Dnp (Example 8); format: biochemical; conditions: 1 h, 37° C., pH 7.5, read-out: inhibition constant Ki
Experimental: After incubating for 1 h, the solutions are analyzed by fluorimetry, as described by Dauch et al, Biochem. J., 280, pp.421-426, 1991a.

[2] = biological target: T1, endopeptidase 24.16; assay: Inhibition of endopeptidase 24.16, neurotensin as substrate, HPLC (Example 9); format: biochemical
Experimental: (§1) After incubation, it is interrupted by acidification and the solution analyzed by high performance liquid chromatography (HPLC) using an elution system constituted by a linear gradient of 42 min of 0.1% trifluoroacetic acid and 0.05% triethyl amine in acetonitrile, ranging between 9/1 and 3/1, as described by Checler et al, Biochimie 70, pp.75-82, 1988.
The results obtained are given in FIGS. 2 to 7, which show chromatograms obtained by measuring the optical density at 230 nm as a function of time (min).

[3] = biological target: T2, endopeptidase 24.15 (Rattus norvegicus, UniProt P24155); assay: Inhibition of endopeptidase 24.15, substrate Bz-Gly-Ala-Ala-Phe-pAB, HPLC (Example 10); format: biochemical; conditions: 37° C.
Experimental: Following incubation, acidification and HPLC analysis on an inverse phase take place using a linear gradient elution system of 63 min of 0.1% trifluoroacetic acid and 0.05% triethyl amine in acetonitrile between 9/1 (v/v) and 5.5/4.5 (v/v), as described by Checler et al in Biochimie 70, pp.75-82, 1988.

[4] = biological target: T2, endopeptidase 24.15; assay: Inhibition of endopeptidase 24.15, neurotensin as substrate, HPLC (Example 11); format: biochemical; conditions: 37° C.
Experimental: This example uses the same operating procedure as in example 10, but using neurotensin as the endopeptidase 24.15 substrate.
(§2) After incubating for 42 min, acidification and analysis takes place of the liquid phase by HPLC in reverse phase using linear gradients of the trifluoroacetic acid, triethyl amine and acetonitrile system, as in example 3.

[5] = biological target: T3, carboxypeptidase A (Bos taurus, UniProt P00730); assay: Effect on carboxypeptidase A, substrate Hippuryl-Phe, HPLC (Example 12); format: biochemical; conditions: 1 μmole/l of inhibitor, 15 min, 37° C.
T3 sequence (P00730 111-419): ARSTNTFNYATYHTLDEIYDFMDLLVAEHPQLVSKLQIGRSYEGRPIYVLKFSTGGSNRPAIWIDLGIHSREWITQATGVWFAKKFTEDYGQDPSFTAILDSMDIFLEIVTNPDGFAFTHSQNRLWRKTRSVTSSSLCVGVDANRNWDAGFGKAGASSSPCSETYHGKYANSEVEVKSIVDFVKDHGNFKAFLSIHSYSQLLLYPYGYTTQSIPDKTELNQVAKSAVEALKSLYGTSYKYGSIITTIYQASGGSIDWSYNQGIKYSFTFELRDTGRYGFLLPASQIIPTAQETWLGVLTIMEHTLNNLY
Experimental: After 15 min incubation, the solution is analyzed by HPLC.

[6] = tested on: leucine aminopeptidase; assay: Effect on leucine aminopeptidase, substrate Leu-7AMC, HPLC (Example 13); format: biochemical; conditions: 1 μmole/l of inhibitor, 15 min, 37° C.
Experimental: After incubating for 15 min, the reaction medium is analyzed by HPLC.

[7] = biological target: angiotensin conversion enzyme (Homo sapiens, UniProt P12821); assay: Effect on angiotensin conversion enzyme, substrate Hippuryl-His-Leu, HPLC (Example 14); format: biochemical; conditions: 1 μmole/l of inhibitor, 15 min, 37° C.
[8] = tested on: endopeptidase 24.11; assay: Effect on endopeptidase 24.11, hydrolysis of neurotensin (Example 15); format: biochemical
Experimental: The hydrolysis of 2 nM of neurotensin is followed by 9 μg of endopeptidase 24.11 under the conditions described in example 3.

[9] = biological target: T1, endopeptidase 24.16; assay: Inhibition of endopeptidase 24.16, neurotensin, Tris-HCl 25 mM pH 7, 25° C. (Example 16); format: biochemical; conditions: read-out: Endopeptidases 24.16 Ki
Experimental: as §1
As in example 9, this example studies the inhibiting effect of the compounds of examples 1 to 7 on endopeptidase 24.16 using neurotensin as the substrate and operating in the same way, except that use is made of a Tris-HCl, 25 mM, pH 7 buffer and a temperature of 25° C.

[10] = biological target: T2, endopeptidase 24.15; assay: Inhibition of endopeptidase 24.15, neurotensin, Tris-HCl 25 mM pH 7, 25° C. (Example 17); format: biochemical; conditions: read-out: Endopeptidases 24.15 Ki
Experimental: as §2
As in example 11, this example studies the inhibiting effect of the compounds of examples 1 to 7 on endopeptidase 24.15 using neurotensin as the substrate and working under the same conditions, except that use is made of a Tris-HCl 25 mM, pH 7 buffer and a temperature of 25° C.

[11] = biological target: endopeptidase 24.16 (Homo sapiens, UniProt Q9BYT8); conditions: Dauch et al, cited from earlier work
[12] = biological target: endopeptidase 24.15 (Homo sapiens, UniProt P52888); conditions: cited from earlier work
Chain of endopeptidase 24.15 (Homo sapiens, UniProt P52888) (P52888 whole entry, species assumed): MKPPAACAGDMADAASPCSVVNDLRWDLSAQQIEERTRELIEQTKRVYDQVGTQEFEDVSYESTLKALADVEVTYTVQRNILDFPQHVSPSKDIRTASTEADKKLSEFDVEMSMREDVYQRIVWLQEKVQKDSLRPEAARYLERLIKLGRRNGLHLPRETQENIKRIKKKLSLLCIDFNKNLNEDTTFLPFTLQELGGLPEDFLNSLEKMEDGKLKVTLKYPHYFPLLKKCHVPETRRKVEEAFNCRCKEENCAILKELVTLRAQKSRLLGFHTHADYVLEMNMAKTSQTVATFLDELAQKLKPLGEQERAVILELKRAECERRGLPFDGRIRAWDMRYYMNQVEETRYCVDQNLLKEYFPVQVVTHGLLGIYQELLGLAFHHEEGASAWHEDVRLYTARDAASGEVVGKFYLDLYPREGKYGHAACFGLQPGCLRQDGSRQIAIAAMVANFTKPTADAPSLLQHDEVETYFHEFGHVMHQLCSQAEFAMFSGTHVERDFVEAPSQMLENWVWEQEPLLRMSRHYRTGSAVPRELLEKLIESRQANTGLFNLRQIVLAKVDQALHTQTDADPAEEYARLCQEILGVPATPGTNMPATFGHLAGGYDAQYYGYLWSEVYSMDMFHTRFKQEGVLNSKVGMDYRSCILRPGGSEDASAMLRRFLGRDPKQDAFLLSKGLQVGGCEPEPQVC

T1 sequence (P42676 38-704): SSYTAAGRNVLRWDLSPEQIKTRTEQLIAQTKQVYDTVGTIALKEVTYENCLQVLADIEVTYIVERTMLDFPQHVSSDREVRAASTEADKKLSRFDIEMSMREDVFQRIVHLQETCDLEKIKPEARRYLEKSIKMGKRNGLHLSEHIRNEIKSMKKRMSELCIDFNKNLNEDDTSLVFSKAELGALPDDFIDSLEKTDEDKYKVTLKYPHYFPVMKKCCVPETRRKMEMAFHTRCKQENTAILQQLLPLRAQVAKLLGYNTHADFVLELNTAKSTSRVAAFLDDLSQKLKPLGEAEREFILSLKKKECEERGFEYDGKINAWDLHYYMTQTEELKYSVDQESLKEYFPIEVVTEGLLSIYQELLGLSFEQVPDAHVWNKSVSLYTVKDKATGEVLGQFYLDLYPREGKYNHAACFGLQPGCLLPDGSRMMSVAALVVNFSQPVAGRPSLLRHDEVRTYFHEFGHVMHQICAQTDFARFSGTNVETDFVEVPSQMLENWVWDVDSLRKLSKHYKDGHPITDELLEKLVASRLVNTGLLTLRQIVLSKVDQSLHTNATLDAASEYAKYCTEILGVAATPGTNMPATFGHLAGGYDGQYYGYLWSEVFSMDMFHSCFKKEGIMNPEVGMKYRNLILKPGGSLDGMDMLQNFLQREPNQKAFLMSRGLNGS
T2 sequence (P24155 whole entry): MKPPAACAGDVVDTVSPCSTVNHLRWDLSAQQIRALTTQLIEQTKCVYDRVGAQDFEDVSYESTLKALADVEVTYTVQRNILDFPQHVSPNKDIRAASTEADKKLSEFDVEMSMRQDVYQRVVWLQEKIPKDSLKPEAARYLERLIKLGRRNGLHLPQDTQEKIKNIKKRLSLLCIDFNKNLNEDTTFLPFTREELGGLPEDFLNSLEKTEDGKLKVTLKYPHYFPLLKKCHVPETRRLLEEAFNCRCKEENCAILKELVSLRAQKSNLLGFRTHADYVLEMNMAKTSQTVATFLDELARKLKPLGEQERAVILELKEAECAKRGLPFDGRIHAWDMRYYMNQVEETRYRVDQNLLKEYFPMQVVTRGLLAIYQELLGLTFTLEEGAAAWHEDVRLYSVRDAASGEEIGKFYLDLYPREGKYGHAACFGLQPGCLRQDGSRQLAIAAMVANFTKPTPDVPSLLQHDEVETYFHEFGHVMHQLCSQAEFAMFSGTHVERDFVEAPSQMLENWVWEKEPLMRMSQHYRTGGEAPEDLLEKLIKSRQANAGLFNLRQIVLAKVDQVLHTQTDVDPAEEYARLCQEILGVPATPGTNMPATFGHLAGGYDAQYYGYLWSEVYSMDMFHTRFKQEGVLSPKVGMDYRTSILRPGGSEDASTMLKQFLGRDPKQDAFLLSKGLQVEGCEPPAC
Chain of endopeptidase 24.16 (Homo sapiens, UniProt Q9BYT8) (Q9BYT8 38-704): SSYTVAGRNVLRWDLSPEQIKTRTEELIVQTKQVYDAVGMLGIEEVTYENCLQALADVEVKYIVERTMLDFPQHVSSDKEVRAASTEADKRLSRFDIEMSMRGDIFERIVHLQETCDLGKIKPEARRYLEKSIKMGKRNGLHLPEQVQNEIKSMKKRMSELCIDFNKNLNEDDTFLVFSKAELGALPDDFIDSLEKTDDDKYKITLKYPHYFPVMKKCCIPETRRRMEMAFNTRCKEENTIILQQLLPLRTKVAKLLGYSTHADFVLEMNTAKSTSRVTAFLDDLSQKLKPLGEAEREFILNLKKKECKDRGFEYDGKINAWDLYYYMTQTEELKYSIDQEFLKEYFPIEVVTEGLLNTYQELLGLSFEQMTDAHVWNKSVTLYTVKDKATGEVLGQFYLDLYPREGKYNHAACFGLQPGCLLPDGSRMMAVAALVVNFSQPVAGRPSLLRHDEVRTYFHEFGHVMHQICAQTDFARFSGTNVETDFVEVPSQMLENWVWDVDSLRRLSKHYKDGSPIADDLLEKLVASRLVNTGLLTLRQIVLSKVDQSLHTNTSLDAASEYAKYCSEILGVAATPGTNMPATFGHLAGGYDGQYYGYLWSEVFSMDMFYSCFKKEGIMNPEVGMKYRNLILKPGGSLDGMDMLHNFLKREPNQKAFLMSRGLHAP
Chain of angiotensin conversion enzyme (P12821 30-1306): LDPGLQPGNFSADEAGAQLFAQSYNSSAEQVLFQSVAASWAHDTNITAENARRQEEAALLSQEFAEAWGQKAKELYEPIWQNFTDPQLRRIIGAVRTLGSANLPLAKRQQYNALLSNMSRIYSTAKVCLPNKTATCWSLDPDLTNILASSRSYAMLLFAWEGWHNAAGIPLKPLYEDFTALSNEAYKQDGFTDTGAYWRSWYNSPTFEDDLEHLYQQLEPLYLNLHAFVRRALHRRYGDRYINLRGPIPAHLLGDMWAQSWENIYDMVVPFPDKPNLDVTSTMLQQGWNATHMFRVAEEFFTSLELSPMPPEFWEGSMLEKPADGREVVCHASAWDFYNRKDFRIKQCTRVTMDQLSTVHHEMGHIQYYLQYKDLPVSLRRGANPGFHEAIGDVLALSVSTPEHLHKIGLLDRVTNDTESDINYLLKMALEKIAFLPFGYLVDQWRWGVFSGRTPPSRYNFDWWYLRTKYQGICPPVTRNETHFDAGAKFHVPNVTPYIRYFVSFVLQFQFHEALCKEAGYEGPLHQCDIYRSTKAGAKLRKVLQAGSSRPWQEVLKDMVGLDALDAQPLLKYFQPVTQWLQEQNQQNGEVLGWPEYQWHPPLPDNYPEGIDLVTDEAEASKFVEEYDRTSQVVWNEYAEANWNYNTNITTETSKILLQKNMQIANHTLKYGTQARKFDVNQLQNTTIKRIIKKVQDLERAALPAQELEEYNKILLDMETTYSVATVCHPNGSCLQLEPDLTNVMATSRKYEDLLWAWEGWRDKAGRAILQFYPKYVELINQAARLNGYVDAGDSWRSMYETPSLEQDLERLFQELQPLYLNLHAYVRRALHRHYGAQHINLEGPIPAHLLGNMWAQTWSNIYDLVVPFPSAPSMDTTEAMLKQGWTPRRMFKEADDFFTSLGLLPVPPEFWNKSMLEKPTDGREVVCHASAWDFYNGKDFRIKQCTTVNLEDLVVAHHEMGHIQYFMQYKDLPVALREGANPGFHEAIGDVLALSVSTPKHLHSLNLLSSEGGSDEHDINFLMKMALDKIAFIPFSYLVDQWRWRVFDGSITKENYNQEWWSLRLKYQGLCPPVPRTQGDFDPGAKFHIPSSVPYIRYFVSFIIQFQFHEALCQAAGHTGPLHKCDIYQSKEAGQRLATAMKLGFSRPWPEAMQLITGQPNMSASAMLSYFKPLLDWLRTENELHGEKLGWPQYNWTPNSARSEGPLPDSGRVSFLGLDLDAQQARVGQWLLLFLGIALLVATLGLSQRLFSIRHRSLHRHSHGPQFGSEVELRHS

Question: For phosphodiepryl O3, which Ki [1] is on record?
Answer: Its Ki is 0.3 nM.

Question: What about the “effectiveness compared with the Ki of the known inhibitor Pro-Ile” value ([2]; Ki 0.9 nM versus Pro-Ile 90 μM) of the same compound?
Answer: Its value is 100,000 times.

Question: And the Ki ([2]; substrate neurotensin, 37° C., pH 7.5)?
Answer: Its Ki is 0.9 nM.

Question: What about the IC50 [3] of the same compound?
Answer: The IC50 was 5 nM.

Question: What about the Ki [3] of the same compound?
Answer: The Ki was 5 nM.

Question: What about the IC50 [4] of the same compound?
Answer: Its IC50 is 100 nM.

Question: And the Ki ([4]; read-out: inhibition constant Ki)?
Answer: The Ki was 7.5 nM.

Question: What about the “carboxypeptidase A inhibition” value [5] of the same compound?
Answer: The value was “no carboxypeptidase A inhibition; also recorded: no effect”.

Question: What about the leucine aminopeptidase inhibition [6] of the same compound?
Answer: Its leucine aminopeptidase inhibition is “no inhibition; also recorded: no effect”.

Question: What about the “inhibition of the angiotensin conversion enzyme” value [7] of the same compound?
Answer: Its value is “no inhibition; also recorded: no effect”.

Question: And the “inhibition of endopeptidase 24.11” value [8]?
Answer: The value was “no inhibition; also recorded: no effect”.

Question: What about the Ki [9] of the same compound?
Answer: Its Ki is 0.44 nM.

Question: What about the Ki [10] of the same compound?
Answer: The Ki was 1.6 nM.

Question: With `CC[C@H](C)[C@H](NC(=O)[C@@H]1CCCN1)C(=O)O` [Pro-Ile] (H-Pro-Ile-OH) as the compound, how does the Ki ([11]; Eur. J. Biochem. 202, 1991b, read-out: Ki inhibition of endopeptidase 24.16) read?
Answer: The Ki was 90000 nM.

Question: What about the “inhibiting action on endopeptidase 24.15” value ([12]; at a concentration as high as 5 mN) of the same compound?
Answer: Its value is “no inhibiting action”.

Question: For `C[C@H](NC(=O)[C@H](C)NC(CCc1ccccc1)C(=O)O)C(=O)N[C@@H](Cc1ccc(O)cc1)C(=O)Nc1ccc(C(=O)O)cc1` (stereo partly drawn) [CPP-Ala-Ala-Tyr-pAB], which Ki ([11]; Biochem. J. 280, 1991, read-out: inhibition constant, endopeptidase 24.16) is on record?
Answer: Its Ki is 1000 nM.

Question: What about the Ki ([12]; Orlowski et al, Biochemistry 27, 1988, read-out: inhibition constant, endopeptidase 24.15) of the same compound?
Answer: The Ki was 16 nM.
